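How tested: cells in 96-well plates exposed to compound for 48 hours at five concentrations. GI50 is the concentration that inhibits growth by half.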 Activity calls are given as the source filed them. Rule as the data show it: active = GI50 up to about 1.1 µM and inactive = higher. Bounds are passed on as bounds.

Among the test systems are NCI-H226; SW-620; RXF 393; COLO 205; UACC-257; A549; 786-0; UACC-62; TK-10; CCRF-CEM; HCT-15; A498; NCI-H522; HCT-116; OVCAR-3; SK-OV-3.
Common to all, as to assay: NCI-60 cell line screen, 48 h

For `CNS(=O)(=O)NN(C)S(=O)(=O)c1ccccc1`, the GI50 with NCI-H226 was > 100 µM (inactive); with SW-620, > 100 µM (inactive); with RXF 393, 0.472 µM (active); with COLO 205, > 100 µM (inactive); in the experiment with UACC-257, > 100 µM (inactive); in the experiment with A549 it was > 100 µM (inactive). Also, the GI50 is > 100 µM (inactive) in the experiment with 786-0; > 100 µM (inactive) in the experiment on UACC-62; > 100 µM (inactive) with TK-10; > 100 µM (inactive) in the experiment on CCRF-CEM; > 100 µM with HCT-15; > 100 µM (inactive) with A498. The GI50 in the experiment on NCI-H522 and in the experiment with HCT-116 was > 100 µM (inactive) each time.

`CN(CC(=O)O)S(=O)(=O)c1ccc2ccccc2c1`: the GI50 with SW-620, in the experiment with RXF 393, with COLO 205, in the experiment on UACC-257, with A549 and with OVCAR-3 was > 100 µM (inactive) in each case. Also, the GI50 was > 100 µM (inactive) with 786-0; > 100 µM (inactive) in the experiment with UACC-62; > 100 µM (inactive) in the experiment on TK-10; > 100 µM (inactive) in the experiment with CCRF-CEM; > 100 µM in the experiment with HCT-15; > 100 µM (inactive) with SK-OV-3. Further, the GI50 with A498 and with NCI-H522 was > 100 µM (inactive) each time.

On to `CC(Oc1ccc2c(-c3ccc(Cl)cc3)cc(=O)oc2c1)C(=O)O` (configuration not stated), for which the GI50 with NCI-H226, with SW-620, in the experiment with RXF 393, in the experiment on COLO 205, with UACC-257 and with A549 was > 100 µM (inactive) each time. Also, the GI50 in the experiment with OVCAR-3, in the experiment on 786-0, with UACC-62, in the experiment with TK-10, in the experiment on CCRF-CEM and in the experiment on SK-OV-3 was > 100 µM (inactive) throughout. Moreover, the GI50 in the experiment on A498, in the experiment with NCI-H522 and with HCT-116 was > 100 µM (inactive) each time.

`CCOC(=O)NC(=O)c1cn(C(CC)COC(=O)NCCCCCCNC(=O)OCC(CC)n2cc(C(=O)NC(=O)OCC)c(=O)[nH]c2=O)c(=O)[nH]c1=O` (configuration not stated): the GI50 in the experiment with NCI-H226, in the experiment on SW-620, with RXF 393, with COLO 205, in the experiment with UACC-257 and with A549 was > 100 µM (inactive) in each case. Moreover, the GI50 was > 100 µM (inactive) in the experiment with OVCAR-3; > 100 µM (inactive) in the experiment on 786-0; > 100 µM (inactive) in the experiment on UACC-62; > 100 µM (inactive) with CCRF-CEM; > 100 µM in the experiment with HCT-15; > 100 µM (inactive) in the experiment on SK-OV-3. Further, the GI50 in the experiment on A498, with NCI-H522 and in the experiment on HCT-116 was > 100 µM (inactive) in each case.

`O=c1n(-c2ccccc2)c(=O)n2n1C1C=CC2C2C(C1)C2(Cl)Cl` (configuration not stated): the GI50 in the experiment on NCI-H226, in the experiment with SW-620, in the experiment with RXF 393, in the experiment with COLO 205, in the experiment with UACC-257 and in the experiment on A549 was > 100 µM (inactive) in each case. Besides, the GI50 with OVCAR-3 is > 100 µM (inactive); with 786-0, > 100 µM (inactive); in the experiment on UACC-62, > 100 µM (inactive); with TK-10, > 100 µM (inactive); with CCRF-CEM it was > 100 µM (inactive); with HCT-15, > 100 µM. Moreover, the GI50 in the experiment on SK-OV-3, with A498, with NCI-H522 and in the experiment with HCT-116 was > 100 µM (inactive) in each case.

Consider `[O-][n+]1c(-c2ccccc2)oc2ccccc21`, for which the GI50 in the experiment with NCI-H226 was 30.8 µM (inactive); in the experiment on SW-620, 16.6 µM (inactive); in the experiment on RXF 393, 21.2 µM (inactive); in the experiment with COLO 205 it was 18.6 µM (inactive); with UACC-257 it was 7.71 µM (inactive); in the experiment with A549, 4.6 µM (inactive). The GI50 in the experiment on OVCAR-3 is 18.5 µM (inactive); in the experiment with 786-0, 22.6 µM (inactive); with UACC-62 it was 8.69 µM (inactive); in the experiment with TK-10, 26.6 µM (inactive); in the experiment on CCRF-CEM, > 62.1 µM (inactive); in the experiment with HCT-15 it was 6.12 µM. Further, the GI50 was > 67.5 µM (inactive) with SK-OV-3, 17.9 µM (inactive) in the experiment with A498, 12 µM (inactive) in the experiment with NCI-H522 and 13.1 µM (inactive) in the experiment with HCT-116.

As for `CC1=C(C(=O)Nc2ccccc2)C(c2ccccc2)C(C(=O)Nc2ccccc2)=C(C)N1`, the GI50 with NCI-H226 was > 100 µM (inactive); in the experiment with SW-620, 47.5 µM (inactive); in the experiment with RXF 393 it was 26.5 µM (inactive); in the experiment with COLO 205 it was 38.4 µM (inactive); in the experiment with UACC-257, 36.1 µM (inactive); in the experiment with A549 it was 35.2 µM (inactive). Also, the GI50 with OVCAR-3 was 40.4 µM (inactive); in the experiment with 786-0, 76.4 µM (inactive); in the experiment with UACC-62, 15.4 µM (inactive); in the experiment with TK-10 it was 91 µM (inactive); in the experiment with HCT-15, 23.4 µM; in the experiment on SK-OV-3, > 100 µM (inactive). Besides, the results for the GI50 in the experiment on A498, in the experiment with NCI-H522 and with HCT-116 were 86.1 µM (inactive), 16.3 µM (inactive) and 26.5 µM (inactive), respectively.

Regarding `CCN(CC)CCNc1ccc2ncn3c4cc(O)ccc4c(=O)c1c23`, the GI50 is 2.82 µM (inactive) in the experiment with NCI-H226; 1.88 µM (inactive) in the experiment on SW-620; 0.536 µM (active) in the experiment on RXF 393; 2.41 µM (inactive) with COLO 205; 5.37 µM (inactive) with UACC-257; 3.31 µM (inactive) in the experiment with A549. Moreover, the GI50 in the experiment with OVCAR-3 was 3.37 µM (inactive); in the experiment with 786-0 it was 2.48 µM (inactive); in the experiment with UACC-62 it was 5.65 µM (inactive); in the experiment with TK-10 it was 6.65 µM (inactive); with CCRF-CEM, 1.32 µM (inactive); in the experiment with HCT-15, 3.65 µM. For the same compound, the GI50 in the experiment with SK-OV-3 is 9.62 µM (inactive); with A498 it was 4.86 µM (inactive); with NCI-H522, 1.22 µM (inactive); with HCT-116, 1.57 µM (inactive).

`CN1C(=O)CC2(C)c3cc(O)cc(Br)c3N(C)C12` (configuration not stated): the GI50 in the experiment with NCI-H226, in the experiment on SW-620, in the experiment on RXF 393, in the experiment on COLO 205, in the experiment with UACC-257 and with A549 was > 100 µM (inactive) throughout. Further, the GI50 with OVCAR-3 is > 100 µM (inactive); in the experiment on 786-0, > 100 µM (inactive); in the experiment with UACC-62 it was 81.5 µM (inactive); in the experiment with TK-10, > 100 µM (inactive); with CCRF-CEM, > 100 µM (inactive); with HCT-15 it was > 100 µM. The GI50 in the experiment with SK-OV-3, in the experiment with A498, with NCI-H522 and in the experiment on HCT-116 was > 100 µM (inactive) each time.

Regarding `CCCCCCCCCCCCC(Br)C(=O)SCCNC(=O)CCNC(=O)[C@@H](O)C(C)(C)COP(=O)(O)OP(=O)(O)OCC1OC(n2cnc3c(N)ncnc32)C(O)C1OP(=O)(O)O` (some centres not stated), the GI50 in the experiment with NCI-H226 is > 56.5 µM (inactive); in the experiment with SW-620, > 56.5 µM (inactive); in the experiment on RXF 393, > 56.5 µM (inactive); with COLO 205, > 56.5 µM (inactive); with UACC-257 it was 14.6 µM (inactive); in the experiment on A549 it was > 56.5 µM (inactive). Besides, the GI50 in the experiment with OVCAR-3 is > 56.5 µM (inactive); with 786-0, > 56.5 µM (inactive); in the experiment on UACC-62, > 56.5 µM (inactive); with TK-10, > 56.5 µM (inactive); with CCRF-CEM it was 35.4 µM (inactive); in the experiment on HCT-15, > 56.5 µM. In addition, the GI50 in the experiment with SK-OV-3 was > 56.5 µM (inactive); with A498 it was > 56.5 µM (inactive); with NCI-H522 it was > 56.5 µM (inactive); in the experiment with HCT-116, 22 µM (inactive).

Turning to `C/C(=C\C(C[C@](C)(O)C(O)CCC#C[Si](C)(C)C)S(=O)(=O)c1ccccc1)CC/C=C/CO[Si](C)(C)C(C)(C)C` (some centres not stated), the GI50 was 22.1 µM (inactive) in the experiment on NCI-H226; 17.3 µM (inactive) in the experiment with SW-620; 14.7 µM (inactive) with RXF 393; 17.3 µM (inactive) in the experiment on UACC-257; 15 µM (inactive) in the experiment with A549; 16 µM (inactive) in the experiment with OVCAR-3. The GI50 is 17 µM (inactive) in the experiment on 786-0; 17.4 µM (inactive) in the experiment with UACC-62; 22 µM (inactive) in the experiment on TK-10; 10.6 µM (inactive) in the experiment with CCRF-CEM; 17.4 µM in the experiment on HCT-15; 22.6 µM (inactive) in the experiment with SK-OV-3. Further, the GI50 in the experiment on A498 is 17.5 µM (inactive); in the experiment on NCI-H522 it was 16.2 µM (inactive); in the experiment with HCT-116 it was 13.4 µM (inactive).

With `C=C1C(=O)C23C(CC(OC(C)=O)C1[C@@H]2OC(C)=O)C1(C)C(OC(C)=O)CCC(C)(C)C1C[C@@H]3OC(C)=O` (some centres not stated), the GI50 is 1.69 µM (inactive) in the experiment with NCI-H226; 1.26 µM (inactive) with SW-620; 0.237 µM (active) in the experiment with RXF 393; 1.74 µM (inactive) in the experiment with UACC-257; 1.68 µM (inactive) in the experiment with A549; 1.66 µM (inactive) in the experiment with OVCAR-3. Moreover, the GI50 was 1.43 µM (inactive) with 786-0; 1.9 µM (inactive) in the experiment with UACC-62; 1.23 µM in the experiment on HCT-15; 1.97 µM (inactive) in the experiment on SK-OV-3; 1.95 µM (inactive) with A498; 0.453 µM (active) with NCI-H522. The GI50 in the experiment on HCT-116 is 1.62 µM (inactive).

In the case of `CSC[S+]([O-])C[C@H](CO)NC(=O)/C=C/c1c(C)[nH]c(=O)[nH]c1=O` (some centres not stated), the GI50 in the experiment with NCI-H226 was 0.67 µM (active); in the experiment with SW-620, 2.21 µM (inactive); in the experiment on RXF 393, 0.804 µM (active); in the experiment with COLO 205 it was 1.43 µM (inactive); in the experiment with UACC-257, 1.38 µM (inactive); with A549, 1.15 µM (inactive). In addition, the GI50 in the experiment on OVCAR-3 is 1.13 µM (inactive); with 786-0, 1.74 µM (inactive); in the experiment with UACC-62 it was 1.01 µM (active); in the experiment on TK-10, 4.02 µM (inactive); in the experiment with CCRF-CEM, 1.19 µM (inactive); with HCT-15, 1.83 µM. Also, the GI50 in the experiment on SK-OV-3 is 1.25 µM (inactive); in the experiment on A498, 0.378 µM (active); in the experiment on NCI-H522, 0.731 µM (active); in the experiment with HCT-116, 1.66 µM (inactive).
